Assay results published in patent publication US20120122727A1, “IN VITRO METHOD FOR PREDICTING WHETHER A COMPOUND IS GENOTOXIC IN VIVO” (priority 2009, published 2012).

Tests used:
[1] = system: primary mouse hepatocytes; assay: Class prediction true GTX vs false GTX by PAM from hepatocyte gene expression
Experimental: PAM uses gene expression data to calculate the shrunken centroid for each class and identifies the specific genes that determine the centroid most. Based on the nearest shrunken centroid, PAM is also capable of predicting to which class an unknown sample belongs (27). Class prediction was performed after 24 h and 48 h of exposure.
For this analysis, the gene list with differentially expressed probe sets was used. For each exposure period, 3 sets of genes (classifiers) were generated by PAM, using all ten treatments, based on the smallest estimated misclassification error rate (generated by 10-fold cross-validation) and a >80% predicted test probability. This was done by using 2 experiments as training set and the third experiment for validation. This was done for all 3 possible combinations, each time leaving out another experiment. For each time point, the classifiers that were in common between the three training sets, were set as the final classifier set for that time point
For the purpose of validating the class discrimination models with the final classifier sets, gene expression data were generated for two additional true GTX compounds, phenacetin and DMBA, and for three False GTX compounds, cur, ethylacrylate and resorcinol and the vehicle control for exposure periods of 24 and 48 h.

[2] = in vivo; cited from earlier work

Compound: COc1cc(/C=C/C(=O)CC(=O)/C=C/c2ccc(O)c(OC)c2)ccc1O [cur]
- Prediction 24 h Exp 1 [1]: FP-GTX
- Prediction 24 h Exp 2 [1]: FP-GTX
- Prediction 24 h Exp 3 [1]: FP-GTX
- Prediction 48 h Exp 1 [1]: FP-GTX
- Prediction 48 h Exp 2 [1]: FP-GTX
- Prediction 48 h Exp 3 [1]: FP-GTX
- class prediction (true GTX / false GTX) [1]: classified correctly
- predicted test probability [1]: 100%
- Genotoxic class [2]: FP-GTX
